Source: patent US10774046B2, “Inhibitors for the treatment of cancer and related methods” (UNIVERSITY OF LOUISVILLE RESEARCH FOUNDATION, INC., priority 2017, dated 2020)

Legend:
[1] = two-week oral toxicity study; assay type: in vivo; details: 120 mg/kg PO for two weeks
Method: Given the potential usefulness of oral administration in terms of cost and convenience, we elected to pursue this route in subsequent toxicity and efficacy pre-clinical studies. Initially, we dosed C57BL/6 mice with 120 mg/kg PO for two weeks and analyzed the effect on complete blood counts, electrolytes, hepatic and renal function, body mass and the gross and histological appearance of the brain, heart, lungs, liver, kidneys and spleen. […] Next, the effects of oral administration of 5MPN on intratumoral F2,6BP and glucose uptake by LLC xenografts was examined. There was a reduction in F2,6BP (FIG. 4E) and 2-[^18F]-fluoro-2-deoxyglucose uptake using positron emission tomography (FIG. 4F). It was confirmed that 5MPN caused a G1 arrest in LLC cells in vitro similar to H460 cells (FIG. 4G). The number of Ki67-positive cells was examined since Ki-67 expression correlated with later S and G2 phases of the cell cycle (SASAKI et al. “The cell cycle associated change of the Ki-67 reactive nuclear antigen expression” J Cell Physiol (1987) Vol. 133, No. 3, pp. 579-584).

[2] = test system: H460 human lung adenocarcinoma xenografts; experiment: H460 xenograft growth in athymic mice; assay type: in vivo, BALB/c athymic mice
LLC cells = experiment: cell cycle analysis by flow cytometry; assay type: cell-based, mouse; details: LLC cells in vitro, 10 μM 5MPN
Method: (§1) To measure apoptosis, cells were stained with annexin V and propidium iodide and examined as previously described. For example, H460 cells were exposed to increasing concentrations of the PFKFB4 inhibitor (MPN-2), the PFKFB3 inhibitor PFK15 (Tocris) or both and viable cells were counted at 24, 48 and 72 hours. DMSO used as vehicle. For cell cycle experiments, cells were detached, washed with cold PBS and fixed in 70% ethanol (4° C., 30 minutes). The cells then were pelleted by centrifugation, resuspended in PBS containing PI and RNase A, incubated at 37° C. in the dark for 30 minutes and analyzed by flow cytometry (BD FACSCalibur). Data were analyzed using FlowJo software (TREE STAR Inc.). Results were calculated as the mean±SD of three experiments. The effects (Fa values) of the series of concentrations of MPN-2 and PFK-15 were examined individually and in combination at a constant ratio of 1:1.

[3] = test system: PFKFB4-/- lung fibroblasts; experiment: cell counts of tamoxifen-inducible PFKFB4-/- fibroblasts; assay type: cell-based, mouse; details: 4HT-induced deletion, 10 μM 5MPN, 24 hours
Description: (§2) H460, H1299, H441, H522 and A549 non-small cell lung cancer (NSCLC), MDA-MB-231 (breast), LNCaP (prostatic) and HCT116 (colon) adenocarcinoma and Lewis lung carcinoma (LLC) cell lines were obtained from ATCC and used within 6 months of acquisition. PFKFB4^−/− ear pinna fibroblasts isolated from TamCre/loxP/PFKFB4^−/− mice were immortalized as described previously (Chesney J et al. Fructose-2,6-bisphosphate synthesis by 6-phosphofructo-2-kinase/fructose-2,6-bisphosphatase 4 (PFKFB4) is required for the glycolytic response to hypoxia and tumor growth. Oncotarget 2014 Aug. 30; 5(16):6670-86). Normal bronchial epithelial cells (NHBE) were obtained from Lonza and NHBE cells expressing telomerase, SV40 large T antigen and activated Ras (hT/LT/Ras) were a gift from Dr. B. J. Rollins, Dana Farber Cancer Institute. All cell lines were tested and found negative for mycoplasma (PCR Mycoplasma Detection Kit, ABM). Cell lines were grown in DMEM (A549, LNCaP, MDA-MB-231, LLC and PFKFB4^−/−), RPMI 1640 (H460, H1299, H441, H522) and McCoy's 5A media (HCT116) (all from Invitrogen) containing 10% fetal calf serum (Hyclone). […]
(§3) Cells were incubated in 20% trypan blue (Sigma) for 5 minutes. Cells excluding trypan blue were counted using a standard hemocytometer (Hausser Scientific) to determine total numbers of viable cells. Data are expressed as mean±SD of three experiments.

H460 cells = experiment: cell cycle analysis by flow cytometry; assay type: cell-based, human
Method: as §1

hT/LT/Ras cells = experiment: cell growth of transformed cells, live cell count; assay type: cell-based, human; details: live cells at 48 hours
Description: as §2, §3

human recombinant PFKFB4 = human recombinant PFKFB4 (Homo sapiens, UniProt Q16877); experiment: fructose-6-phosphate kinase activity of recombinant PFKFB4 (in vitro kinase assay); assay type: biochemical
human recombinant PFKFB4, sequence (Q16877 whole entry): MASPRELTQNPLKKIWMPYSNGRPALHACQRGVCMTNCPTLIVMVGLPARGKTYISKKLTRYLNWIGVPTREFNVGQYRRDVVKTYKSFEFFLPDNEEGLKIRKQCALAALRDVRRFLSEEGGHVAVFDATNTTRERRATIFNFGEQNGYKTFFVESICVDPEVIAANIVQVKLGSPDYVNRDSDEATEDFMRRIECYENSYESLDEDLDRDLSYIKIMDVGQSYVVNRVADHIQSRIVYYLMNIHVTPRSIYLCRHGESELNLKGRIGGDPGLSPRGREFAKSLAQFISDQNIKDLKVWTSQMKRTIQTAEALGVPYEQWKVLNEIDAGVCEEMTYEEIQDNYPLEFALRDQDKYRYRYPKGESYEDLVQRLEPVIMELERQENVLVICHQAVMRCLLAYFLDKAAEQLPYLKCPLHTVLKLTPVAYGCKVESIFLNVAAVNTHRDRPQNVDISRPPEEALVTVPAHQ
Method: The fructose-6-phosphate kinase activity of human recombinant PFKFB4 in the presence of DMSO±indicated 5MPN concentrations was assayed as previously described. The activity of 5MPN against 97 kinases was examined using a commercially available active-site dependent competition binding assay core service (KINOMEscanEDGE) that quantifies the capacity of test agents to compete with an immobilized, active-site directed ligand using a DNA-tagged kinase and immobilized ligand and compound. For example, enzyme inhibition was studied using an ADP-Glo assay. The effect of MPN-2 on the activity of recombinant human PFKFB4 enzyme was examined in an ADP-Glo assay (Promega), which measures ADP formed from a kinase reaction. ADP is converted into ATP, which is converted into light by a luciferase. PFKFB4 protein was exposed to MPN-2 at indicated concentrations in the presence of ATP and fructose-6-phosphate and following manufacturer's instructions, ADP-Glo and kinase detections reagents were added. The data are shown as the decrease in luminescence caused by MPN-2 relative to DMSO.

human cancer cell lines = experiment: proliferation, viable cell count by trypan blue exclusion; assay type: cell-based; details: counts at 48 hours shown
Method: Method: Cells were plated in 24 well plates and exposed to increasing concentrations of Formula (VIII). DMSO was used as a vehicle. After 24, 48 and 72 hours of exposure, cells were detached, and viable cells were counted by Trypan blue exclusion (representative counts at 48 hours shown).

Compound	signs of toxicity (blood counts, electrolytes, hepatic and renal function, body mass, histology, behavior) [1]	tumor growth ([2]; 5MPN 120 mg/kg oral daily)	body weight ([2]; H460-bearing athymic mice, 120 mg/kg oral daily)	cell cycle distribution (LLC cells)	effect of genomic deletion of Pfkfb4 on anti-proliferative effect [3]	cell cycle distribution (H460 cells; H460, 10 μM 5MPN)	effect of overexpression of PFKFB4 on G1 arrest (H460 cells; H460 transfected with PFKFB4, 10 μM 5MPN, 24 hours)	cell growth of transformed cells (hT/LT/Ras cells)	type of inhibition (Lineweaver-Burk analyses) (human recombinant PFKFB4; as a function of F6P concentration, FIG. 1D)	PFKFB4 activity (human recombinant PFKFB4; kinase activity of recombinant PFKFB4, FIG. 1C)	proliferation (cell counts relative to DMSO) (human cancer cell lines)
COc1cccc2c(NCCCCCO[N+](=O)[O-])ccnc12 [5MPN, 5-[(8-methoxyquinolin-4-yl)amino]pentyl nitrate]	no signs of toxicity	suppressed the growth	without affecting body weight	G1 arrest	sensitized	G1 arrest	reversed	suppressed	competitive inhibitor of the F6P binding site	inhibited PFKFB4 activity	
COc1cccc2c(NCCCCCNC(=O)C(F)(F)F)ccnc12 [Formula (VIII), 2,2,2-trifluoro-N-(5-((8-methoxyquinolin-4-yl)amino)pentyl)acetamide]											decreases the proliferation of human cancer cell lines in vitro with higher potency than 5MPN
